# According to US6995167B2 (priority 1999, dated 2006):
# Molecular target: α7 nAChR subtype (Rattus norvegicus, UniProt Q05941)
# Type: binding
# Details: read-out: KD of radioligand
# Sequence of α7 nAChR subtype (Q05941 23-502 limits assumed): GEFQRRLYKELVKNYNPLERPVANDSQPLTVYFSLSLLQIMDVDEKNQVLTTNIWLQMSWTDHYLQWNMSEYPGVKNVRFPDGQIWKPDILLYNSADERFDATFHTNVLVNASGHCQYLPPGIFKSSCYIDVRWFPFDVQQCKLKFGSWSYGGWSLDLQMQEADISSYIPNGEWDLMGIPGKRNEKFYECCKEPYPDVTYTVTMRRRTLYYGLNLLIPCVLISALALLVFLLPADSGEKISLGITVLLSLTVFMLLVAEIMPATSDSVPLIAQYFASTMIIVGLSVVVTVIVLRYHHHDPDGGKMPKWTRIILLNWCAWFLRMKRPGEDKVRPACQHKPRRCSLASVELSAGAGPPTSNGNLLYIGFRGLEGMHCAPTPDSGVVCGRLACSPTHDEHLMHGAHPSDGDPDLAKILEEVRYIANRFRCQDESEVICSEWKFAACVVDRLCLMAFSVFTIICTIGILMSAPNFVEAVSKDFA
substance,measurement,value
^125I-α-Bungarotoxin [^125I-α-BTX],Kd,1.67 nM
